In BindingDB's records for doi:10.1016/j.bmc.2019.115193 (Stanford University, 2020):

Assay: Inhibition of human DYRK1A transfected in HEK293T cells co-transfected with Renilla plasmid, pGL3-NFAT and NFATc1 assessed as derepression of NFAT-dependent luciferase activity measured after 48 hrs by luciferase assay

- EC50: 1530 nM
Structure (SMILES): CCOC(=O)c1cnc2ccc(-c3ccnc(C)c3)nc2c1N[C@H]1CC[C@H](CN(C)C)CC1
